Measurements: patent US5739302A, “Manufacture and use of novel glycosides of catechol estrogens” (priority 1991, dated 1998)
In brackets after ≈: the same amount, converted by molar mass. Where two headings read alike, the source gives them in different places.

What was measured:
Solubility in water = format: physicochemical
Procedure: For example, the volume of water required to dissolve 1 mg of various glycosides is as following; 2 to 3 ml for 17-glucoside, 2 ml for 17-maltoside, 0.7 ml for 2-glucoside, and 3 ml for 3-glucoside, while 1 mg of 2-hydroxyestradiol cannot be dissolved in 3 ml of water. Accordingly, the glycosides obtained in the present invention provide a way to prepare an injection containing the same.

rat liver homogenate = assay: Inhibitory effect on the lipid peroxidation of rat liver homogenate (thiobarbituric acid method); format: biochemical; settings: 10 μM; 4 hours at 37° C.
Procedure: (Inhibitory effect of 2-hydroxyestradiol 2-glucoside on the lipid peroxidation of rat liver homogenate)
A rat liver homogenate was prepared in 4 volume of 0.15M KCl .2-OHE2 2-Glu was dissolved in distilled water and 2-OHE2, in 1% DMSO, to give a final concentration of 1 mM. The reaction mixture contained the followings in a final volume of 2 ml; 1.98 ml of rat liver homogenate (10 mg protein/ml) and 10 μM either 2-PHE2 2-Glu or 2-OHE2. As blank tests, the same volume of distilled water or 1% DMSO was added in place of 2-OHE2 2-Glu or 2-OHE2. After incubation for 4 hours at 37° C., lipid peroxide level was determined by the thiobarbituric acid method.

rat brain homogenate = assay: Inhibitory effect on the lipid peroxidation of rat brain homogenate (thiobarbituric acid method); format: biochemical; settings: for amount of lipid peroxides in terms of malondialdehyde: 37° C.
Procedure: (Inhibitory effect of 2-hydroxyestradiol 2-glucoside on the lipid peroxidation of rat brain homogenate)
2-Hydroxyestradiol 2-(β-D-glucopyranoside) (2-OHE2 2-Glu) obtained according to the method of this invention (Example 16) was dissolved in water to give a concentration of 1 mM or 0.5 mM. The reaction mixture contains the followings in a final volume of 2 ml; 1.98 ml of rat brain homogenate (10 mg protein/ml) and 2-OHE2 2-Glu at a concentration of 5 μM or 10 μM. After incubation at 37° C., lipid peroxide level was determined by the thiobarbituric acid method.
Values in Table 2 indicate the amount of lipid peroxides (nmol/mg protein
in terms of malondialdehyde.

[1] = Acute toxicity (intraperitoneal injection); format: in vivo, mouse; settings: mouse, in vivo, ip; male ddY mice, intraperitoneal; 2 weeks
Procedure: (§1) Male mice of ddY strain were received 2-OHE2 17-Glu or 2-OHE2 2-Glu by an intraperitoneal injection at doses of 250 mg, 500 mg, 750 mg, or 1000 mg/kg body weight.

Male mice of ddY strain = assay: Acute toxicity (intraperitoneal injection); format: in vivo, mouse; settings: 250, 500, 750 or 1000 mg/kg i.p.; observation period of 2 weeks
Procedure: as §1

[2] = test system: low-density lipoprotein (LDL); assay: Inhibitory effect on the lipid peroxidation of low-density lipoprotein (CuSO4-induced; methylene blue method); format: biochemical, rabbit (hypercholesterolemic); settings: for amount of lipid peroxides: LDL + CuSO4, 5 nmol compound in 1 ml
Procedure: (Inhibitory effect of 2-hydroxyestradiol 17-glucoside on the lipid peroxidation of low-density lipoprotein)
Low-density lipoprotein (LDL) was prepared from hypercholesterolemic rabbit serum. 2-Hydroxyestradiol 17-(β-D-glucopyranoside) (2-OHE2 17-Glu) obtained according to the method of this invention (Example 4 ) was dissolved in distilled water and 2-hydroxyestradiol (2-OHE2) as a reference compound, in dimethylsulfoxide (DMSO), to give a final concentration of 500 μM. The reaction mixture contained the followings in a final volume of 1 ml: 500 μg of LDL; 5 nmol of CuSO4; and 5 nmol of either 2-OHE2 17-Glu or 2-OHE2. As blank tests, distilled water or DMSO was added in place of 2-OHE2 17-Glu or 2-OHE2. After incubation for a definite time at […], the amount of lipid hydroperoxides generated was determined by the methylene blue method.
Values in TABLE 1 indicate the amount of lipid peroxides (nmol/mg

red blood cells = assay: Incorporation of glycosides of 2-hydroxyestradiol into red blood cells; format: in vitro ADME
Procedure: (§2) (Incorporation of glycosides of 2-hydroxyestradiol into red blood cells)
(§3) The reaction mixture contained 0.2 nmol of 2-OHE2, 2-OHE2 17-Glu, or 2-hydroxyestradiol 17-(β-maltoside) (2-OHE2 17-Mal, obtained in Example 5) in 0.1 ml of 0.2% DMSO-0.1% ascorbic acid in phosphate buffered saline (PBS) and 0.9 ml of suspension of red blood cells in PBS. After incubation at 37° C. for several intervals, the mixture was centrifuged and supernatant fraction was obtained, and then the amount of each glycoside of 2-hydroxyestradiol remained in the supernatant was determined by HPLC.
(§4) Values in Table 3 indicate residual amount (%) in the incubation medium.

[3] = as above; format: in vitro ADME; settings: red blood cell suspension, 0.2 nmol compound, 37° C., read-out: residual amount in the incubation medium
Procedure: as §2, §3, §4

| SMILES | solubility (Solubility in water) | solubility (Solubility in water; water) | inhibition of the lipid peroxidation (rat liver homogenate) | LD50 at 336 h [1] | abnormal symptoms (in words) (Male mice of ddY strain) | survival (in words) (Male mice of ddY strain) | amount of lipid peroxides ([2]; incubation 1 hr) | amount of lipid peroxides ([2]; incubation 2 hr) | amount of lipid peroxides ([2]; incubation 3 hr) | amount of lipid peroxides ([2]; incubation 4 hr) | incorporation into red blood cells (in words) (red blood cells) | other results |
| --- | --- | --- | --- | --- | --- | --- | --- | --- | --- | --- | --- | --- |
| C[C@]12CC[C@@H]3c4cc(O)c(O[C@@H]5O[C@H](CO)[C@@H](O)[C@H](O)[C@H]5O)cc4CC[C@H]3[C@@H]1CC[C@@H]2O [2-Hydroxyestradiol 3-(β-D-glucopyranoside)] | 3 mL | 333 µg/mL (≈ 740 µM) |  |  |  |  |  |  |  |  |  |  |
| C[C@]12CC[C@@H]3c4cc(O[C@@H]5O[C@H](CO)[C@@H](O)[C@H](O)[C@H]5O)c(O)cc4CC[C@H]3[C@@H]1CC[C@@H]2O [2-OHE2 2-Glu, 2-Hydroxyestradiol 2-(β-D-glucopyranoside)] | 0.5 to 1 mL | 1430 µg/mL (≈ 3170 µM) | 77% | > 100 mg/kg | no abnormal symptom was found | All mice survived |  |  |  |  |  | inhibition of the lipid peroxidation (in words) (rat brain homogenate; 5 μM and 10 μM): strongly inhibited the lipid peroxidation in a concentration dependent manner; amount of lipid peroxides in terms of malondialdehyde (rat brain homogenate; 5 μM, incubation 0 hr): 0.271 nmol/mg protein; amount of lipid peroxides in terms of malondialdehyde (rat brain homogenate; 5 μM, incubation 1 hr): 1.124 nmol/mg protein; amount of lipid peroxides in terms of malondialdehyde (rat brain homogenate; 5 μM, incubation 2 hr): 1.867 nmol/mg protein; amount of lipid peroxides in terms of malondialdehyde (rat brain homogenate; 5 μM, incubation 4 hr): 3.167 nmol/mg protein; amount of lipid peroxides in terms of malondialdehyde (rat brain homogenate; 10 μM, incubation 0 hr): 0.271 nmol/mg protein; amount of lipid peroxides in terms of malondialdehyde (rat brain homogenate; 10 μM, incubation 1 hr): 0.905 nmol/mg protein; amount of lipid peroxides in terms of malondialdehyde (rat brain homogenate; 10 μM, incubation 2 hr): 1.326 nmol/mg protein; amount of lipid peroxides in terms of malondialdehyde (rat brain homogenate; 10 μM, incubation 4 hr): 1.534 nmol/mg protein |
| C[C@]12CC[C@@H]3c4cc(O)c(O)cc4CC[C@H]3[C@@H]1CC[C@@H]2O[C@@H]1O[C@H](CO)[C@@H](O)[C@H](O)[C@H]1O [2-OHE2 17-Glu, 2-Hydroxyestradiol 17-(β-D-glucopyranoside)] | 2 to 3 mL | 333 to 500 µg/mL (≈ 740 to 1110 µM) |  | > 100 mg/kg | no abnormal symptom was found | All mice survived | 8.93 nmol/mg protein | 19.48 nmol/mg protein | 24.76 nmol/mg protein | 32.17 nmol/mg protein | markedly retarded as compared with that of 2-OHE2 | inhibitory potency on LDL peroxidation (in words) ([2]; compared with 2-OHE2): the same to that of 2-OHE2; inhibition of the peroxidation of LDL (in words) ([2]; in words): clearly inhibited the peroxidation of LDL |
| C[C@]12CC[C@@H]3c4cc(O)c(O)cc4CC[C@H]3[C@@H]1CC[C@@H]2O[C@@H]1O[C@H](CO)[C@@H](O[C@H]2O[C@H](CO)[C@@H](O)[C@H](O)[C@H]2O)[C@H](O)[C@H]1O [2-OHE2 17-Mal, 2-hydroxyestradiol 17-(β-maltoside)] | 2 mL | 500 µg/mL (≈ 816 µM) |  |  |  |  |  |  |  |  | markedly retarded as compared with that of 2-OHE2 |  |
| C[C@]12CC[C@@H]3c4cc(O)c(O)cc4CC[C@H]3[C@@H]1CC[C@@H]2O [Example 2-OHE2, 2-hydroxyestradiol, reference compound] |  |  | 73% |  |  |  | 17.45 nmol/mg protein | 24.55 nmol/mg protein | 27.29 nmol/mg protein | 30.74 nmol/mg protein |  | solubility (Solubility in water; per 1 mg, water, read-out: volume of water required to dissolve 1 mg): < 333 µg/mL; remaining at 0.5 min ([3]; 0.5 min): 4.4%; remaining at 1 min ([3]; 1.0 min): 4.4%; remaining at 2 min ([3]; 2.0 min): 3.7% |
